Counter-ions that a name gives are not always drawn.
system: not given; assay: not given; conditions: not given

First: C[C@@H](NCC1CCc2ccc(N(C)S(=O)(=O)c3ccccc3Br)cc2O1)c1ccccc1 (stereo partly drawn) (as salt: HCl) [Example 51, 2-bromo-N-methyl-N-[2-({[(1R)-1-phenylethyl]amino}methyl)-3,4-dihydro-2H-chromen-7-yl]benzenesulfonamide]
Second: C[C@@H](NCC1CCc2ccc(N(C)S(=O)(=O)c3cccc4ccccc34)cc2O1)c1ccccc1 (stereo partly drawn) (as salt: HCl) [Example 55, N-methyl-N-[2-({[(1R)-1-phenylethyl]amino}methyl)-3,4-dihydro-2H-chromen-7-yl]naphthalene-1-sulfonamide]
The melting point of the first is lower: 199 to 201 °C for the first, 245 to 246 °C for the second.

First: C[C@@H](NCC1CCc2ccc(N(C)S(=O)(=O)c3ccc(F)cc3)cc2O1)c1ccccc1 (stereo partly drawn) (as salt: HCl) [Example 52, 4-fluoro-N-methyl-N-[2-({[(1R)-1-phenylethyl]amino}methyl)-3,4-dihydro-2H-chromen-7-yl]benzenesulfonamide]
Second: C[C@@H](NCC1CCc2ccc(N(C)S(=O)(=O)c3ccc(Cl)cc3)cc2O1)c1ccccc1 (stereo partly drawn) (as salt: HCl) [Example 53, 4-chloro-N-methyl-N-[2-({[(1R)-1-phenylethyl]amino}methyl)-3,4-dihydro-2H-chromen-7-yl]benzenesulfonamide]
The melting point of the first is higher: 208 to 210 °C for the first, 198 to 201 °C for the second.

`COc1ccc(S(=O)(=O)N(C)c2ccc3c(c2)OC(CN[C@H](C)c2ccccc2)CC3)cc1OC` (stereo partly drawn) (as salt: HCl) [Example 54, 3,4-dimethoxy-N-methyl-N-[2-({[(1R)-1-phenylethyl]amino}methyl)-3,4-dihydro-2H-chromen-7-yl]benzenesulfonamide] showed a melting point of 229 to 230 °C.

For `C[C@@H](NCC1CCc2ccc(N(C)S(=O)(=O)c3ccc(N)cc3)cc2O1)c1ccccc1` (stereo partly drawn) (as salt: HCl) [Example 56, 4-amino-N-methyl-N-[2-({[(1R)-1-phenylethyl]amino}methyl)-3,4-dihydro-2H-chromen-7-yl]benzenesulfonamide], the melting point was 200 °C (dec.).

molecular target: T1, human cloned 5-HT6 receptors (Homo sapiens, UniProt P50406); assay: 5-HT6 binding affinity, [3H]-LSD displacement on membranes of Hela cells expressing human cloned 5-HT6 receptors; conditions: [3H]-LSD 3.0 nM, Hela cell membranes, 120 min at room temperature
T1 construct: expressed in transfected cells; host or cells: HeLa cells (membrane preparation)
Method: The affinity of test compounds for the serotonin 5-HT6 receptor is evaluated in the following manner. Cultured Hela cells expressing human cloned 5-HT6 receptors are harvested and centrifuged at low speed (1,000×g) for 10.0 min to remove the culture media. The harvested cells are suspended in half volume of fresh physiological phosphate buffered saline solution and recentrifuged at the same speed. This operation is repeated. The collected cells are then homogenized in ten volumes of 50 mM Tris.HCl (pH 7.4) and 0.5 mM EDTA. The homogenate is centrifuged at 40,000×g for 30.0 min and the precipitate is collected. The obtained pellet is resuspended in 10 volumes of Tris.HCl buffer and recentrifuged at the same speed. The final pellet is suspended in a small volume of Tris.HCl buffer and the tissue protein content is determined in aliquots of 10-25 μl volumes. Bovine Serum Albumin is used as the standard in the protein determination according to the method described in Lowry et al., J. Biol. Chem., 193:265 (1951). The volume of the suspended cell membranes is adjusted to give a tissue protein concentration of 1.0 mg/ml of suspension. The prepared membrane suspension (10 times concentrated) is aliquoted in 1.0 ml volumes and stored at −70° C. until used in subsequent binding experiments.
Binding experiments are performed in a 96 well microtiter plate format, in a total volume of 200 μl. […] The test compounds are added in 20.0 μl volume.
The reaction is allowed to proceed in the dark for 120 min at room temperature, at which time, the bound ligand-receptor complex is filtered off on a 96 well unifilter with a Packard Filtermate® 196 Harvester. The bound complex caught on the filter disk is allowed to air dry and the radioactivity is measured in a Packard TopCount® equipped with six photomultiplier detectors, after the addition of 40.0 μl Microscint®-20 scintillant to each shallow well. The unifilter plate is heat-sealed and counted in a PackardTopCount® with a tritium efficiency of 31.0%.
Binding in the presence of varying concentrations of test compound is expressed as a percentage of specific binding in the absence of test compound. The results are plotted as log % bound versus log concentration of test compound. […] A linear regression line of data points is plotted, from which the IC50 value is determined and the Ki value is determined based upon the following equation: […]
where L is the concentration of the radioactive ligand used and KD is the dissociation constant of the ligand for the receptor, both expressed in nM.

T1 sequence (P50406 whole entry): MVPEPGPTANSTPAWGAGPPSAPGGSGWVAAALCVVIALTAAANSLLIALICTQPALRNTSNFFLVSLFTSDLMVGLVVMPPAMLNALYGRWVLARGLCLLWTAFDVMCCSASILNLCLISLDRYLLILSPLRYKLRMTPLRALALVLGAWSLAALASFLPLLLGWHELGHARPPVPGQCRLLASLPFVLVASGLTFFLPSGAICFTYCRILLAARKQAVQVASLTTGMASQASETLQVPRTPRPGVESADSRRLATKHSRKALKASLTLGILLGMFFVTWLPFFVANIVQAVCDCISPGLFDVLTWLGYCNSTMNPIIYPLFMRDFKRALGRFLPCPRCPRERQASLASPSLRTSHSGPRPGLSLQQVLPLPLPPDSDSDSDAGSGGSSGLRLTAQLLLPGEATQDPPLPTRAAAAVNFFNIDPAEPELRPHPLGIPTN

Going from `Cc1ccc(S(=O)(=O)Nc2ccc3c(c2)OC(CN[C@H](C)c2ccccc2)CC3)cc1` (stereo partly drawn) [Example 37, 4-methyl-N-[2-({[(1R)-1-phenylethyl]amino}methyl)-3,4-dihydro-2H-chromen-7-yl]benzenesulfonamide] to `C[C@@H](NCC1CCc2ccc(NS(=O)(=O)c3ccc(Cl)cc3)cc2O1)c1ccccc1` (stereo partly drawn) [Example 38, 4-chloro-N-[2-({[(1R)-1-phenylethyl]amino}methyl)-3,4-dihydro-2H-chromen-7-yl]benzenesulfonamide], the Ki falls from 16 nM to 5 nM (3.2-fold).

Going from `COc1ccc(S(=O)(=O)Nc2ccc3c(c2)OC(CN[C@H](C)c2ccccc2)CC3)cc1` (stereo partly drawn) [Example 39, 4-methoxy-N-[2-({[(1R)-1-phenylethyl]amino}methyl)-3,4-dihydro-2H-chromen-7-yl]benzenesulfonamide] to `C[C@@H](NCC1CCc2ccc(NS(=O)(=O)c3ccc(N)cc3)cc2O1)c1ccccc1` (stereo partly drawn) [Example 44, 4-amino-N-[2-({[(1R)-1-phenylethyl]amino}methyl)-3,4-dihydro-2H-chromen-7-yl]benzenesulfonamide], the Ki falls from 10 nM to 1 nM (10-fold).

Compared with `C[C@@H](NCC1CCc2ccc(NS(=O)(=O)c3ccc(OC(F)(F)F)cc3)cc2O1)c1ccccc1` (stereo partly drawn) [Example 40, N-[2-({[(1R)-1-phenylethyl]amino}methyl)-3,4-dihydro-2H-chromen-7-yl]-4-(trifluoromethoxy)benzenesulfonamide], `C[C@@H](NCC1CCc2ccc(NS(=O)(=O)c3ccc(C(F)(F)F)cc3)cc2O1)c1ccccc1` (stereo partly drawn) [Example 43, N-[2-({[(1R)-1-phenylethyl]amino}methyl)-3,4-dihydro-2H-chromen-7-yl]-4-(trifluoromethyl)benzenesulfonamide] is 1.8-fold lower in Ki: 11 nM for the first, 6 nM for the second.

Going from `C[C@@H](NCC1CCc2ccc(NS(=O)(=O)c3cccc4ccccc34)cc2O1)c1ccccc1` (stereo partly drawn) [Example 41, N-[2-({[(1R)-1-phenylethyl]amino}methyl)-3,4-dihydro-2H-chromen-7-yl]naphthalene-1-sulfonamide] to `C[C@@H](NC[C@H]1CCc2ccc(NS(=O)(=O)c3cccc4ccccc34)cc2O1)c1ccccc1` [Example 46A, N-[(2R)-2-({[(1R)-1-phenylethyl]amino}-methyl)-3,4-dihydro-2H-chromen-7-yl)naphthalene-1-sulfonamide Hydrochloride], the Ki rises from 4 nM to 37 nM (9.2-fold).

First: C[C@@H](NCC1CCc2ccc(NS(=O)(=O)c3ccc(Cl)s3)cc2O1)c1ccccc1 (stereo partly drawn) [Example 42, 5-chloro-N-[2-({[(1R)-1-phenylethyl]amino}methyl)-3,4-dihydro-2H-chromen-7-yl]thiophene-2-sulfonamide]
Second: C[C@@H](NC[C@@H]1CCc2ccc(NS(=O)(=O)c3ccc(N)cc3)cc2O1)c1ccccc1 [Example 47B, 4-Amino-N-[(2S)-2-({[(1R)-1-phenylethyl]amino}methyl)-3,4-dihydro-2H-chromen-7-yl]benezenesulfonamide Hydrochloride]
The Ki of the first is 5.5-fold lower: 2 nM for the first, 11 nM for the second.

First: C[C@@H](NC[C@H]1CCc2ccc(NS(=O)(=O)c3ccccc3)cc2O1)c1ccccc1 [Example 45A]
Second: C[C@@H](NC[C@@H]1CCc2ccc(NS(=O)(=O)c3ccccc3)cc2O1)c1ccccc1 [Example 45B, N[(2S)-2-({[(1R)-1-Phenylethyl]amino}methyl)-3,4-dihydro-2H-chromen-7-yl]phenylsulfonamide]
The Ki of the first is 17-fold lower: 1 nM for the first, 17 nM for the second. The first binds more tightly here.

First: C[C@@H](NC[C@@H]1CCc2ccc(NS(=O)(=O)c3cccc4ccccc34)cc2O1)c1ccccc1 [Example 46B, N-[(2S)-2({[(1R)-1-phenylethyl]amino}methyl)-3,4-dihydro-2H-chromen-7-yl]naphthalene-1-sulfonamide Hydrochloride]
Second: C[C@@H](NCC1CCc2ccc(N(C)S(=O)(=O)c3cccc4ccccc34)cc2O1)c1ccccc1 (stereo partly drawn) [Example 55, N-methyl-N-[2-({[(1R)-1-phenylethyl]amino}methyl)-3,4-dihydro-2H-chromen-7-yl]naphthalene-1-sulfonamide]
The Ki of the first is 2-fold lower: 2 nM for the first, 4 nM for the second.

Going from `C[C@@H](NCC1CCc2ccc(N(C)S(=O)(=O)c3ccccc3Br)cc2O1)c1ccccc1` (stereo partly drawn) [Example 51, 2-bromo-N-methyl-N-[2-({[(1R)-1-phenylethyl]amino}methyl)-3,4-dihydro-2H-chromen-7-yl]benzenesulfonamide] to `C[C@@H](NCC1CCc2ccc(N(C)S(=O)(=O)c3ccc(F)cc3)cc2O1)c1ccccc1` (stereo partly drawn) [Example 52, 4-fluoro-N-methyl-N-[2-({[(1R)-1-phenylethyl]amino}methyl)-3,4-dihydro-2H-chromen-7-yl]benzenesulfonamide], the Ki rises from 3 nM to 7 nM (2.3-fold).

`C[C@@H](NCC1CCc2ccc(N(C)S(=O)(=O)c3ccc(Cl)cc3)cc2O1)c1ccccc1` (stereo partly drawn) [Example 53, 4-chloro-N-methyl-N-[2-({[(1R)-1-phenylethyl]amino}methyl)-3,4-dihydro-2H-chromen-7-yl]benzenesulfonamide] and `C[C@@H](NCC1CCc2ccc(N(C)S(=O)(=O)c3ccc(N)cc3)cc2O1)c1ccccc1` (stereo partly drawn) [Example 56, 4-amino-N-methyl-N-[2-({[(1R)-1-phenylethyl]amino}methyl)-3,4-dihydro-2H-chromen-7-yl]benzenesulfonamide] are within 1.5-fold of each other in Ki: 5 nM for the first, 4 nM for the second.

In the case of `COc1ccc(S(=O)(=O)N(C)c2ccc3c(c2)OC(CN[C@H](C)c2ccccc2)CC3)cc1OC` (stereo partly drawn) [Example 54, 3,4-dimethoxy-N-methyl-N-[2-({[(1R)-1-phenylethyl]amino}methyl)-3,4-dihydro-2H-chromen-7-yl]benzenesulfonamide], the Ki is reported as 11 nM.
